From patent US20260199213A1, “PEPTIDE HAVING ACTIVITY OF IMPROVING STATE OF SKIN, AND USE THEREOF” (CAREGEN CO., LTD., priority 2022, published 2026)

How the values were obtained:
sirtuin-1 (SIRT-1) = experiment: SIRT-1 expression by RT-PCR in HaCaT cells; type: cell-based; settings: 10 μM, 50 μM or 1000 μM peptide, 24 hours
Experimental: In this example, the aim was to confirm the effect of the peptides according to an example on strengthening the skin barrier, by evaluating the expression levels of sirtuin-1 (SIRT-1) or aquaporin-3 (AQP3).
Specifically, HaCaT cells were seeded in a 6-well plate at a density of 3×10^5 cells/well and cultured for 24 hours. Next, the cells were washed once with serum-free DMEM media, and 10 μM, 50 μM or 1000 μM of the peptide consisting of the amino acid sequence of SEQ ID NO: 1 was dispensed into 1 mL of the serum-free media, and cultured in a CO2 incubator at 37° C. for 24 hours. Next, the culture was washed twice with PBS, and RNA was isolated from the culture using easy blue (iNtRON, Cat. No.: 17061, Korea). Next, using an RT kit (Enzynomics, Cat. NO.: RT200, Korea), the isolated RNA was reverse transcribed to synthesize the respective cDNA. Next, using the synthesized 1 ug cDNA, primers for SIRT-1 or AQP3, and a PCR kit (Enzynomics, Cat. No.: P581T, Korea), polymerase chain reaction (PCR) was performed. Meanwhile, in this example, an untreated group was used as the control group, and a group to which EGF was added was used as a positive control group, the nucleotide sequences of the primers used in this example are shown in Table 3 below.

B16F10 cells = experiment: Melanin production in α-MSH-stimulated B16F10 cells; type: cell-based, mouse; settings: 200 ng/ml α-MSH, 50 μM or 100 μM peptide, 72 hours, absorbance at 450 nm
Experimental: B16F10 cells, a mouse melanoma cell line, were seeded at a density of 5×10^4 cells/well in a 6-well plate and cultured for 16 hours. Next, the culture medium was replaced with a medium including a 2% serum, and 200 ng/ml of α-MSH (α-melanocyte-stimulating hormones) was added to promote melanin production, in addition, 50 μM or 100 μM of each peptide consisting of the amino acid sequence of SEQ ID NO: 1 was added, and then cultured for 72 hours. Next, the cultured cells were dissolved with 1N NaOH and the absorbance at 450 nm was measured. Meanwhile, an untreated group (Con) was used as the control group, a group to which only α-MSH was added was used as the negative control group, a group to which the peptide consisting of the amino acid sequence of SEQ ID NO: 2 or 3 and α-MSH were added (50 μM, 100 μM) as the comparison group, and a group to which Arbutin (200 μM, 500 μM), known as a skin whitening agent, and α-MSH were added was used as the positive control group.

fibronectin = experiment: Fibronectin expression by RT-PCR in NIH3T3 cells; type: cell-based
Experimental: In this example, the aim was to confirm the effect of the peptide according to an example on improving endogenous skin aging, including improvement of wrinkles and enhancement of elasticity, etc., by evaluating the expression levels of collagen type 1 (Col1a1), fibronectin, elastin, and hyaluronic acid, which are known components of the dermis.
Specifically, NIH3T3 cells were seeded in a 6-well plate at a density of 3×10^5 cells/well and cultured for 24 hours. Next, the cells were washed once with serum-free DMEM media, and 10 μM, 50 μM or 1000 μM of a peptide consisting of an amino acid sequence of SEQ ID NO: 1 was dispensed into 1 mL of the serum-free media, and cultured in a CO2 incubator at 37° C. for 24 hours. Next, the culture was washed twice with PBS, and RNA was isolated from the culture using easy blue (iNtRON, Cat. No.: 17061, Korea). Next, using an RT kit (Enzynomics, Cat. NO.: RT200, Korea), the isolated RNA was reverse transcribed to synthesize the respective cDNA. Next, using the synthesized 1 ug cDNA, primers for Colla1, fibronectin, or elastin, and a PCR kit (Enzynomics, Cat. No.: P581T, Korea), polymerase chain reaction (PCR) was performed. Meanwhile, in this example, an untreated group was used as a control group, and a group to which […] was added was used as a positive control group, the nucleotide sequences of the primers used in this example are shown in Table 2 below.
In this example, the aim was to more specifically compare the effects of peptides according to an embodiment on improving intrinsic skin aging. To this end, a peptide consisting of an amino acid sequence of SEQ ID NO: 2, 3, or 4 having a sequence similar to a peptide according to an embodiment was set as a comparison group, and the expression levels of fibronectin and elastin were evaluated and compared in the same manner as in Example 2-1. […]

## GPRGDP [SEQ ID NO: 1]
sirtuin-1 (SIRT-1)
  expression of skin barrier factor SIRT-1: increases
B16F10 cells
  melanin production: decreased
fibronectin; 10 μM, 50 μM or 1000 μM peptide, 24 hours, PCR, vs untreated group
  expression of fibronectin: increased
fibronectin; comparison experiment, FIG. 5 and FIG. 6
  expression of fibronectin (Example 2-2): increased
fibronectin; vs peptides of SEQ ID NO: 2, 3, or 4 (50 μM, 100 μM)
  fibronectin expression effect compared to the comparison group: superior
